Measured values from PubChem BioAssay (NCI).
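Dose response: 5 concentrations. Exposure: 48 h. Format: 96-well plates. Endpoint: linear interpolation; highest concentration if not reached. At the GI50, growth is halved. TGI: total growth inhibition.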

Columns and labels:
Experiment in all cases: NCI tumour cell line growth inhibition, 48 h
HT29 colon = system: HT29 colon
DU-145 prostate = system: DU-145 prostate
HCC-2998 colon = system: HCC-2998 colon
U251 CNS = system: U251 CNS
ACHN renal = system: ACHN renal
MCF7 breast = system: MCF7 breast
SK-OV-3 ovarian = system: SK-OV-3 ovarian
MALME-3M melanoma = system: MALME-3M melanoma

SMILES | GI50 (HT29 colon) [µM] | TGI (HT29 colon) [µM] | GI50 (DU-145 prostate) [µM] | TGI (DU-145 prostate) [µM] | GI50 (HCC-2998 colon) [µM] | TGI (HCC-2998 colon) [µM] | GI50 (U251 CNS) [µM] | TGI (U251 CNS) [µM] | GI50 (ACHN renal) [µM] | TGI (ACHN renal) [µM] | GI50 (MCF7 breast) [µM] | TGI (MCF7 breast) [µM] | GI50 (SK-OV-3 ovarian) [µM] | TGI (SK-OV-3 ovarian) [µM] | GI50 (MALME-3M melanoma) [µM] | TGI (MALME-3M melanoma) [µM]
Cc1ccccc1NC(=O)NC(CC(N)=O)c1ccc2c(c1)nc(-c1cccc(Oc3ccc(C(C)(C)C)cc3)c1)n2CCCN1CCCCC1C (stereo not drawn) | 1.95 | 3.89 | 5.4 | 13.6 | 2.23 | 5.04 | 1.75 | 3.23 | 9.08 | 22.3 | 1.92 | 3.54 | 10.9 | 23.9 | 1.88 | 3.98
CC(C)(C)c1ccc(-c2nnc(SCc3ccc(Cl)cc3)n2-c2cccc(C(F)(F)F)c2)cc1 | – | > 100 | – | > 100 | – | > 62.4 | – | > 100 | – | > 100 | – | > 100 | – | > 100 | – | > 100
COc1ccc(Cc2ccccc2C(=O)O)c2ccccc12 | – | > 100 | – | > 100 | – | – | – | 89.3 | – | > 100 | – | > 100 | – | > 100 | – | 59.3
CC1SC(c2cccs2)N(NC(=O)C(O)c2ccccc2)C1=O (stereo not drawn) | > 100 | > 100 | > 100 | > 100 | > 100 | > 100 | > 100 | > 100 | > 100 | > 100 | > 100 | > 100 | > 100 | > 100 | > 100 | > 100
COc1ccc2c(CNCCCCO)cc3cc4c(cc3c2c1)OCO4 | 1.29 | 6.87 | 1.33 | 7.09 | 1.66 | 6.57 | 1.85 | 7.29 | 0.891 | 3.7 | – | – | 4.2 | 23.8 | 1.65 | 4.08
CN(C)CCn1cc(-c2ccc3c(Nc4ccc(CC(=O)Nc5cccc(F)c5)cc4)ncnc3c2)cn1 | 1.29 | 3.16 | 1.67 | 3.51 | 1.77 | 3.84 | 1.56 | 3.45 | 4.24 | > 10 | 1.21 | 3.55 | > 10 | > 10 | 4.7 | > 10
C=C1C(=O)O[C@H]2[C@H]1CC/C(COC(=O)CCC(=O)OC/C1=C/CC[C@@]3(C)O[C@H]3[C@H]3OC(=O)C(=C)[C@@H]3CC1)=C\CC[C@@]1(C)O[C@@H]21 | 1.46 | 3.03 | 1.71 | 3.53 | 2.13 | 4.4 | 2.78 | 9.18 | 0.753 | 2.03 | – | – | 23.1 | 84.8 | 1.14 | 2.88
COc1cc2c(/C=C3\C(=O)Nc4ccc(Br)cc43)c(Cl)n(C)c2cc1C | 1.98 | 6.83 | 2.04 | 4.36 | 1.66 | 4.62 | 0.675 | 6.69 | 2.26 | 11.2 | 0.322 | 6.53 | 3.87 | 18.6 | 2.75 | 10
COc1ccc(C(=O)Nc2cccc(C3CC(=O)c4c(cc(OC)c(OC)c4OC)O3)c2)cc1 (stereo not drawn) | 3.38 | 12.2 | 2.88 | > 100 | 3.46 | 87.1 | – | – | 2.57 | > 100 | 0.466 | 56.4 | 3.63 | 98.4 | 1.56 | 32.6
CC1=C(C(=O)Nc2ccc(F)c(Cl)c2)C(c2cccc(Cl)c2)NC(=O)N1 (stereo not drawn) | 14.8 | 30.1 | 20.6 | 55.8 | 18.3 | 32.5 | 16.5 | 32.5 | 18.3 | 46.4 | 19.8 | 46 | 19.1 | 44.6 | – | –
O=[N+]([O-])c1ccc2[nH]cc(-c3c4ccccc4cc4[nH]c5ccc([N+](=O)[O-])cc5c34)c2c1 | 3.62 | 11.3 | 2.26 | 5.09 | 2.33 | 4.58 | 2.81 | 8.41 | 2.42 | 6.97 | 1.65 | 3.73 | 3.38 | 10.8 | 2.32 | 6.77
Oc1ccc2ccccc2c1/C=N\Nc1ccccn1 | 39.1 | > 100 | 0.482 | – | 4.13 | > 100 | 0.427 | 97.3 | 0.331 | – | 0.895 | > 34 | 0.64 | > 55 | – | –
N#Cc1c2ccccc2c2nnc3cc(Cl)c(Cl)cc3n12 | > 100 | > 100 | 32.4 | > 100 | 23 | 82.1 | 50.7 | > 100 | 19.9 | 52.8 | 27.5 | 90.3 | > 100 | > 100 | > 100 | > 100
Cn1c2ccccc2c2c3c(c4c5ccccc5n(CCCCCC#N)c4c21)C(=O)N(O)C3=O | 1.65 | 3.36 | 0.381 | > 100 | 2.57 | 38.5 | 0.33 | 1.51 | 0.317 | 1.19 | 0.299 | 27.9 | 0.596 | 7.45 | 2.22 | 7.05
O=c1c2ccccc2nc(-c2ccc(Cl)cc2)n1O | – | > 100 | – | > 100 | – | – | – | > 100 | – | 65 | – | 63.4 | – | > 100 | – | –
Fc1ccc(Nc2nc(Nc3ccc(-c4nc5ccccc5[nH]4)cc3)nc(N3CCCC3)n2)cc1 | 2.54 | 5.62 | 4.21 | 15.3 | 2.39 | 6.25 | 2.37 | 5.82 | 3.08 | 10.4 | 1.9 | 5.22 | 15.9 | 31.6 | 2.17 | 4.81
CCCNc1nc(-c2ccc(OC)cc2)nc2ccccc12 | – | – | 14.3 | 32.2 | 13.6 | 34.4 | 16.7 | 37.8 | 15.8 | 33.3 | 19.5 | > 100 | 18.9 | 53 | 15.1 | 29.3

SMILES | GI50 (HT29 colon) [µM] | TGI (HT29 colon) [µM] | GI50 (DU-145 prostate) [µM] | TGI (DU-145 prostate) [µM] | GI50 (HCC-2998 colon) [µM] | TGI (HCC-2998 colon) [µM] | GI50 (U251 CNS) [µM] | TGI (U251 CNS) [µM] | GI50 (ACHN renal) [µM] | TGI (ACHN renal) [µM] | GI50 (MCF7 breast) [µM] | TGI (MCF7 breast) [µM] | GI50 (SK-OV-3 ovarian) [µM] | TGI (SK-OV-3 ovarian) [µM] | GI50 (MALME-3M melanoma) [µM] | TGI (MALME-3M melanoma) [µM]
O=C1c2cccnc2-c2nc(-c3ccc([N+](=O)[O-])cc3)cc3c2c1nc1ccccc13 | 11.9 | 26.3 | 2.21 | 4.88 | 8 | 26.5 | 3.44 | > 100 | 5.03 | 30 | 1.86 | > 21.5 | 11.4 | 39 | 2.15 | 6.32
CC(O)CN(CCN(CC(C)O)CC(C)O)CC(C)O.O=[N+]([O-])O.[Cu+2] (stereo not drawn) | > 100 | > 100 | > 100 | > 100 | – | – | > 100 | > 100 | > 100 | > 100 | 93.1 | > 100 | > 100 | > 100 | > 100 | > 100
COc1ccc(/C=C(/C(=O)N2CCNCC2)c2cc(OC)c(OC)c(OC)c2)cc1O | 7.75 | > 100 | 4.1 | > 100 | 3.76 | > 100 | 3.29 | > 100 | 49.5 | > 100 | 1.34 | > 100 | 4.18 | > 100 | – | –
CC(C)[C@]12O[C@H]1[C@@H]1O[C@]13[C@]1(O[C@H]1C[C@H]1c4c(C(=O)c5ccccc5)oc(OC(=O)c5ccccc5)c4CC[C@@]13C)[C@@H]2O | 0.0172 | > 38 | 0.0204 | 15.3 | 0.0378 | 0.355 | 0.0863 | > 100 | 0.0174 | 20.7 | 0.0139 | 19.9 | 0.0351 | > 100 | 0.0189 | 0.0498
CCOC(=O)C(=Cc1ccccc1Br)C(=O)OCC | – | 10.9 | – | 2.68 | – | 6.54 | – | – | – | 6.01 | – | > 100 | – | – | – | 8.26
O=C1c2cc3c(cc2-c2c1c1ccc([N+](=O)[O-])cc1c(=O)n2CCCCl)OCO3 | 1.07 | > 100 | 0.122 | > 100 | 0.489 | 5.43 | 0.0828 | – | 0.0707 | 0.234 | 0.333 | – | – | > 100 | – | –
NS(=O)(=O)c1ccc(-n2nc(-c3ccc(Cl)cc3)cc2C2=CC(=O)C=CC2=O)cc1 | – | – | 23.7 | 87.5 | 18.3 | 33 | – | – | 20.8 | 35.1 | 21.1 | 69.9 | – | – | – | –
Cc1ccc(Cl)cc1Nc1nc(C(F)(F)F)ccc1C(=O)Oc1ccc(Cl)cc1 | 13.3 | > 100 | 7.73 | 24.8 | 8.86 | 29.4 | 4.15 | 16.1 | 5.16 | 18 | 16.8 | > 100 | 12.2 | 37.4 | – | –
Cc1cc(S(N)(=O)=O)c(S/C(=N\NS(=O)(=O)c2ccc(Cl)cc2)c2ccc(Cl)cc2)cc1Cl | – | – | > 100 | > 100 | – | – | 62.8 | > 100 | 38.6 | > 100 | > 100 | > 100 | > 100 | > 100 | – | –
Cc1c2c(nn1-c1ccc(S/N=C3\SCC(=O)CN3c3ccccc3)cc1)-c1ccccc1CC2 | 34.5 | > 50 | 43.9 | > 50 | – | – | 21.1 | > 50 | 24.1 | > 50 | 7.79 | 36.7 | 43.3 | > 50 | > 50 | > 50
Cc1ccc(/C=C2\CCOC2=O)cc1 | > 100 | > 100 | > 100 | > 100 | – | – | > 100 | > 100 | > 100 | > 100 | > 100 | > 100 | > 100 | > 100 | > 100 | > 100
O=C(NC(=S)NS(=O)(=O)c1ccc(N2N=C3c4ccccc4CC3C2c2cccs2)cc1)c1ccccc1 (stereo not drawn) | 46 | > 100 | 28.3 | > 100 | – | – | 20.1 | 82.3 | – | – | > 100 | > 100 | 90.8 | > 100 | – | –
COC(=O)c1oc2c(C(=O)/C=C/c3ccc(OC)cc3)c(OCCCN3CCCCC3)ccc2c1C | 1.49 | 3.22 | 1.18 | 2.57 | – | – | 1.49 | 2.88 | 1.03 | 2.54 | 1.15 | 2.5 | 1.25 | 4.35 | 1.51 | 3.3
CN(C)/[N+]([O-])=N/Oc1cc(Nc2ccc(C(=O)O)cc2)c([N+](=O)[O-])cc1[N+](=O)[O-] | 44.2 | > 100 | 18 | 35.7 | – | – | 19.3 | 33.5 | 26.7 | 62.4 | 25.2 | 69.7 | – | – | – | –
CCN1C(=O)N(c2c(F)c(OC)cc(OC)c2F)Cc2cnc3[nH]c(CN4CCOCC4)cc3c21 | 2.84 | > 100 | 1.99 | > 100 | – | – | 2.75 | > 100 | 1.02 | 14.1 | 8.04 | > 100 | – | – | 1.45 | 20.2
CC1=C(C)C(=O)C(C(C)C2=C(C)C(=O)C(C)=C(C)C2=O)=C(C)C1=O | – | – | 35.5 | > 100 | 57.1 | > 100 | 21.7 | > 100 | 24.5 | > 100 | 29 | > 100 | > 100 | > 100 | 44.1 | > 100
